According to BindingDB's records for doi:10.1046/j.1471-4159.2002.00817.x (Uppsala University, 2002):

Tests used:
[1] = target: T1, Neuropeptide Y receptor type 1 (Gallus gallus, UniProt Q8QFM1)
T1 sequence (Q8QFM1 whole entry): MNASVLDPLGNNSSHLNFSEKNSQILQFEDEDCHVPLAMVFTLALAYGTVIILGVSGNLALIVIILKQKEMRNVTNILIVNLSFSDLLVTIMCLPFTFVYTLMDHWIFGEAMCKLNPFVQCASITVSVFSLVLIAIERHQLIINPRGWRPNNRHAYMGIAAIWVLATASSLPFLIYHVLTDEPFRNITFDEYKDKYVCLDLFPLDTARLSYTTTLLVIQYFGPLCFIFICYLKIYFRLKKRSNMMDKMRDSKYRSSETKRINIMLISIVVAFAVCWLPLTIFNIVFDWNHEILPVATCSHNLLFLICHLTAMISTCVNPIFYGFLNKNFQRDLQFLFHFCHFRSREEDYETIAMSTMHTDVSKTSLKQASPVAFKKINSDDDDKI

[2] = target: T2, Neuropeptide Y receptor type 5 (Gallus gallus, UniProt Q8QFM2)
T2 sequence (Q8QFM2 whole entry): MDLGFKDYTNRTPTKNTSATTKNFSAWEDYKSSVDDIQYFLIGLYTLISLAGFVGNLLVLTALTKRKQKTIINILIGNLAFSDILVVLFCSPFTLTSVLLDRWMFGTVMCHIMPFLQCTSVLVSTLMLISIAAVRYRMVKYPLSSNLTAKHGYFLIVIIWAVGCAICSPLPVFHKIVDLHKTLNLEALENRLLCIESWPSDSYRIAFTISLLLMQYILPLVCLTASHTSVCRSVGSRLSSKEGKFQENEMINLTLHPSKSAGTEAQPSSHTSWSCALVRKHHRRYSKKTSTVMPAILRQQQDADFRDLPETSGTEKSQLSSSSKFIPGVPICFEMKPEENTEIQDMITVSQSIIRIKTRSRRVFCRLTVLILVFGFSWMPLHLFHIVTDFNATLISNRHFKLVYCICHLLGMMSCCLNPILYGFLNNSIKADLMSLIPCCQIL

| Compound | Ki [1] [µM] | Ki [2] [µM] |
| --- | --- | --- |
| NC(N)=NCCCC(NC(=O)CC1(CC(=O)N2CCN(C3c4ccccc4NC(=O)c4ccccc43)CC2)CCCC1)C(=O)NCCn1c(=O)n(-c2ccccc2)n(-c2ccccc2)c1=O (stereo unspecified) [NSC_5311024] | > 10 |  |
| Nc1nc(NC[C@H]2CC[C@H](CNS(=O)(=O)c3cccc4ccccc34)CC2)nc2ccccc12 [CGP 71683] | > 10 |  |
| N=C(N)NCCCC(NC(=O)C(c1ccccc1)c1ccccc1)C(=O)NCc1ccc(O)cc1 (stereo unspecified) [NSC_5311023] |  | > 10 |
| CN(C)CC1CCC(CN=C(N)c2ccc(CC(NC(=O)C(Cc3ccccc3)NS(=O)(=O)c3ccc4ccccc4c3)C(=O)N3CCCC3)cc2)CC1 (stereo unspecified) [CAS_5312150] | > 10 | > 10 |
| O=c1oc2ccccc2c(O)c1C1CC(c2ccc(-c3ccccc3)cc2)Cc2ccccc21 (stereo unspecified) [NSC_41735] | > 10 | 0.00081 |
| H-GPSQPTYPGDDAPVEDLIRFYNDLQQYLNVVTRHRY-NH2 [NSC_0] | > 10 | 0.00468 |
| CC[C@H](C)[C@H](NC(=O)[C@H](Cc1ccc(O)cc1)NC(=O)[C@H](CCCNC(=N)N)NC(=O)[C@H](CCCNC(=N)N)NC(=O)[C@H](CC(C)C)NC(=O)[C@H](CC(=O)O)NC(=O)[C@H](C)NC(=O)[C@H](C)NC(=O)[C@H](Cc1ccc(O)cc1)NC(=O)[C@H](CCC(N)=O)NC(=O)[C@H](C)NC(=O)[C@H](CCSC)NC(=O)[C@H](CCC(N)=O)NC(=O)[C@H](CCC(=O)O)NC(=O)[C@@H]1CCCN1C(=O)[C@@H](NC(=O)[C@H](C)NC(=O)[C@H](CC(N)=O)NC(=O)[C@H](CC(=O)O)NC(=O)CNC(=O)[C@@H]1CCCN1C(=O)[C@H](Cc1ccc(O)cc1)NC(=O)[C@@H](NC(=O)[C@@H]1CCCN1C(=O)[C@H](CCC(=O)O)NC(=O)[C@H](CC(C)C)NC(=O)[C@@H]1CCCN1C(=O)[C@H](C)N)C(C)C)[C@@H](C)O)C(=O)N[C@@H](CC(N)=O)C(=O)N[C@@H](CCSC)C(=O)N[C@@H](CC(C)C)C(=O)N[C@H](C(=O)N[C@@H](CCCNC(=N)N)C(=O)N1CCC[C@H]1C(=O)N[C@@H](CCCNC(=N)N)C(=O)N[C@@H](Cc1ccc(O)cc1)C(N)=O)[C@@H](C)O [CAS_59763-91-6] | > 10 | 0.00048 |
